Patent publication US20220296535A1, “Antibacterial Dosage Regime Using Cannabinoids” (Botanix Pharmaceuticals Limited, priority 2019, published 2022)
In brackets after ≈: the same amount, converted by molar mass. Several values for one entry are separate records, joined by “and”; a condition that tells them apart may be missing. Equal values may be shown once. Where a name gives a salt, the structure may show the parent alone. Read-outs that look alike come from different tables or passages of the source.

Legend:
[1] = test system: Staphylococcus aureus MRSA ATCC 43300 biofilm; test: Biofilm minimum inhibitory concentration (Biofilm MIC), crystal violet OD590; format: cell-based; conditions: two technical replicates, ≥70% inhibition OD590; for Biofilm MIC (TSB + 5% Gluc) 07/112/18: first biological replicate; for Biofilm MIC (TSB + 5% Gluc) 14/112/18: second biological replicate
Protocol: (§1) The collaborator supplied sample as dry material. A stock solution at 10 mg/mL in neat DMSO (11.2 mg in 1.12 mL of DMSO) was prepared. The highest concentration tested in the assay was 128 μg/mL and 2% DMSO as a final concentration using 1/20 dilution to achieve these concentrations.
Bacteria (Staphylococcus aureus, ATCC 43300; MRSA) was cultured on Tryptic Soy Broth (TSB, BD, Cat. No. 211825) at 37° C. overnight, then it was diluted 1:100 in fresh TSB supplemented with 5% glucose. 100 μL were added across the 96-well of polystyrene (PS) (Corning; Cat. No. 3370) plate, leaving row H as media Control. Plates were incubated at 37° C. for 48 h to generate the biofilm. The plates were prepared in duplicate.
The antibiotic controls and CBD were serially diluted in TSB with 5% glucose two-fold across the wells of polystyrene (PS) 96-well plates (Corning; Cat. No. 3370), plated in duplicate. All plates had flat bottom wells and were covered with low-evaporation lids.
48 h after incubation, bacteria plates were carefully washed three times with 200 μL/well of saline solution (0.9% NaCl, Baxter Healthcare; Cat. No. AHF7124) using manual pipette to remove the planktonic cells but leave the biofilm adhered to the plate wells. Then, 100 μL of diluted controls and CBD were transferred into the washed plates containing the biofilm. Then, these plates were incubated at 37° C. for 24 h.
Next day, plates were washed three times with saline solution, then fixed with 100 μL/well of 99% methanol for 15 minutes. Once the biofilm was fixed, 100 μL/well 0.1% Crystal Violet Stain (Sigma; Cat No. C0775-25G) was added for 20 minutes and used as indicator of biofilm formation, followed by three times washing and dry well. To dissolve the crystal violet, 150 μL/well of methanol was added to allow for biofilm MIC analysis.
The biofilm formation was determined by optical density read at 590 nm (OD590). The percentage of biofilm formation was evaluated comparing the average, standard deviation and percentage of confidence of the media control (Row H) against the rest of the plate.
Analysis was performed using Microsoft Excel.

[2] = test system: P. acnes ATCC 6919; test: Anaerobic MIC micro-broth dilution; format: cell-based, Cutibacterium acnes (formerly Propionibacterium acnes)
[3] = test system: Staphylococcus aureus ATCC 43300; test: Broth MIC (Example 1); format: cell-based; conditions: for MIC: Staphylococcus aureus
Protocol: as §1

[4] = test system: S. aureus ATCC 43300; test: Anaerobic MIC micro-broth dilution; format: cell-based, Staphylococcus aureus
[5] = test system: S. aureus MSSA (26 strains); test: MIC50/MIC90 micro-broth dilution, MSSA strains
[6] = test system: 132 strains of Staphylococcus aureus (106 MRSA and 26 MSSA strains); test: MIC50/MIC90 micro-broth dilution, all strains
[7] = test system: A. acidipropionici ATCC 25562; test: Anaerobic MIC micro-broth dilution; format: cell-based, Acidipropionibacterium acidipropionici
[8] = test system: S. aureus MRSA (106 strains); test: MIC50/MIC90 micro-broth dilution, MRSA strains; format: cell-based, Staphylococcus aureus
[9] = test system: C. granulosum ATCC 25564; test: Anaerobic MIC micro-broth dilution; format: cell-based, Cutibacterium granulosum; conditions: Cutibacterium granulosum, ATCC25564, 48 h
[10] = test system: high-level mupirocin-resistant isolate 329; test: MIC microtiter broth dilution (Example 9); format: cell-based; conditions: Staphylococcus aureus; MRSA strain 329
Protocol: (§2) Strains used: ATCC 29213 (standard control), ATCC 43300, low-level mupirocin-resistant isolate 815, high-level mupirocin-resistant isolage 329, high-level mupirocin-resistant isolate 993.
(§3) All strains prepared as described in “Bacterial Preparation” section above with the following differences: inocula were prepared in Müller-Hinton broth (MHB) rather than RPMI, and were diluted 1:10,000 following wash for an inoculum concentration of ˜5×10^4 CFU/mL.
(§4) Using a multichannel pipet, 100 μL of MHB was added to each of the wells of the 96-well plates (round bottom/U-bottom). Stock solutions of antibiotic were prepared at 2× the highest assay concentration (mupirocin at 4096 μg/mL and CBD at 100 μg/mL). 100 μL of this broth was added to each of the broth-containing wells in column 1 of the plate, and mixed by pipetting the full volume 6-7 times, for a final concentration of 2048 μg/mL mupirocin or 50 μg/mL CBD. […]
(§5) 5 μL of each inoculum was added to the appropriate wells (various wells were left without inoculation and used to correct the absorbance of the CBD-containing wells and as negative controls). […] Plate was read by a plate reader at 600 nm.
(§6) Inhibition was determined to have occurred in the first well with a difference in OD600 of <0.05 from the uninfected wells with the same concentration of antimicrobial, provided inhibition growth continued through all higher concentrations. […]

[11] = test system: high-level mupirocin-resistant isolate 993; test: MIC microtiter broth dilution (Example 9); format: cell-based; conditions: Staphylococcus aureus; MRSA strain 993
Protocol: as §2, §3, §4, §5, §6

[12] = S. aureus ATCC 43300, anaerobic chamber, BHI, 48 h
[13] = A. acidipropionici ATCC 25562, anaerobic chamber, BHI, 48 h
[14] = ATCC43300, read-out: Broth MIC, TSB + 5% Glucose
[15] = Cutibacterium acnes, ATCC6919, 48 h
[16] = ATCC43300, read-out: Broth MIC, CAMHB
[17] = Acidipropionibacterium acidipropionici, ATCC25562, 48 h

| Structure (SMILES) | Biofilm MIC (TSB + 5% Gluc) 07/112/18 [1] | Biofilm MIC (TSB + 5% Gluc) 14/112/18 [1] | MIC range ([6]; S. aureus spp. ALL) [µg/mL] | MIC [3, 14] [µg/mL] | MIC50 ([5]; Staphylococcus aureus, MSSA) [µg/mL] | MIC90 ([5]; Staphylococcus aureus, MSSA) [µg/mL] | MIC50 ([6]; Staphylococcus aureus) [µg/mL] | MIC90 ([6]; Staphylococcus aureus) [µg/mL] | MIC50 ([8]; Staphylococcus aureus, MRSA) [µg/mL] | MIC90 ([8]; Staphylococcus aureus, MRSA) [µg/mL] | MIC [9] [µg/mL] | MIC [3, 16] [µg/mL] | further results |
| --- | --- | --- | --- | --- | --- | --- | --- | --- | --- | --- | --- | --- | --- |
| CCC[C@@H]1C[C@@H](C(=O)N[C@@H]([C@H]2O[C@H](SC)[C@H](O)[C@@H](O)[C@H]2O)[C@H](C)Cl)N(C)C1.Cl.O [Clindamycin, Clindamycin hydrochloride monohydrate] | >64 µg/mL | >64 µg/mL | 0.03 to 64 | – | – | – | – | – | – | – | – | – | MIC ([2]; P. acnes ATCC 6919, anaerobic chamber, BHI, 48 h): 0.125 µg/mL; Broth MIC ([3]; CAMHB): >64 µg/mL; Broth MIC ([3]; TSB + 5% Glucose): >64 µg/mL; MIC [4, 12]: >32 µg/mL; MIC50 ([5]; S. aureus MSSA): 0.125 µg/mL; MIC90 ([5]; S. aureus MSSA): 0.1875 µg/mL; MIC50 ([6]; S. aureus spp. ALL): 0.125 µg/mL; MIC90 ([6]; S. aureus spp. ALL): 64 µg/mL; MIC [7, 13]: 0.125 µg/mL; MIC50 ([8]; S. aureus MRSA): 0.125 µg/mL; MIC90 ([8]; S. aureus MRSA): 64 µg/mL |
| CCCCCCCCCC(=O)N[C@@H](Cc1c[nH]c2ccccc12)C(=O)N[C@H](CC(N)=O)C(=O)N[C@@H](CC(=O)O)C(=O)N[C@@H]1C(=O)NCC(=O)N[C@@H](CCCN)C(=O)N[C@@H](CC(=O)O)C(=O)N[C@H](C)C(=O)N[C@@H](CC(=O)O)C(=O)NCC(=O)N[C@H](CO)C(=O)N[C@@H]([C@H](C)CC(=O)O)C(=O)N[C@@H](CC(=O)c2ccccc2N)C(=O)O[C@@H]1C [Daptomycin, reference compound] | 32 µg/mL and 16 µg/mL | 16 µg/mL | 0.5 to 16 | 32 | 2 (≈ 1.23 µM) | 2 (≈ 1.23 µM) | 2 (≈ 1.23 µM) | 4 (≈ 2.47 µM) | 2 (≈ 1.23 µM) | 4 (≈ 2.47 µM) | – | – | – |
| CC[C@H]1OC(=O)[C@H](C)[C@@H](O[C@H]2C[C@@](C)(OC)[C@@H](O)[C@H](C)O2)[C@H](C)[C@@H](O[C@@H]2O[C@H](C)C[C@H](N(C)C)[C@H]2O)[C@](C)(O)C[C@@H](C)C(=O)[C@H](C)[C@@H](O)[C@]1(C)O [Erythromycin] | – | – | – | – | – | – | – | – | – | – | 0.125 (≈ 0.17 µM) | – | MIC ([4]; Staphylococcus aureus, ATCC43300, 48 h): > 32 µg/mL; MIC [7, 13]: 4/2 |
| C/C(=C\C(=O)OCCCCCCCCC(=O)O)C[C@@H]1OC[C@H](C[C@@H]2O[C@H]2[C@@H](C)[C@H](C)O)[C@@H](O)[C@H]1O [Mupirocin] | 0.25 µg/mL and 0.125 µg/mL | 0.25 µg/mL | 0.125 to 64 | 0.25 | 0.5 (≈ 0.999 µM) | 0.5 (≈ 0.999 µM) | 0.5 (≈ 0.999 µM) | 0.5 (≈ 0.999 µM) | 0.5 (≈ 0.999 µM) | 0.5 (≈ 0.999 µM) | > 32 | 0.25 (≈ 0.499 µM) | MIC [10]: 256 to 2050 µg/mL (≈ 511 to 4090 µM); MIC [11]: 256 to 2050 µg/mL (≈ 511 to 4090 µM); MIC [2, 15]: > 32 µg/mL; MIC [7, 17]: > 32 µg/mL |
| Cc1onc(-c2ccccc2)c1C(=O)N[C@@H]1C(=O)N2[C@@H]1SC(C)(C)[C@@H]2C(=O)O [Oxacillin sodium salt hydrate] | – | – | – | – | – | – | – | – | – | – | – | – | MIC [4, 12]: 64/16/8; MIC [7, 17]: 2 µg/mL |
| COc1cc(Cc2cnc(N)nc2N)cc(OC)c1OC [Trimethoprim] | 8 µg/mL | 16 µg/mL and >64 µg/mL | – | 4 | – | – | – | – | – | – | – | 1 (≈ 3.44 µM) | – |
| CN[C@H](CC(C)C)C(=O)N[C@H]1C(=O)N[C@@H](CC(N)=O)C(=O)N[C@H]2C(=O)N[C@H]3C(=O)N[C@H](C(=O)N[C@H](C(=O)O)c4cc(O)cc(O)c4-c4cc3ccc4O)[C@H](O)c3ccc(c(Cl)c3)Oc3cc2cc(c3O[C@@H]2O[C@H](CO)[C@@H](O)[C@H](O)[C@H]2O[C@H]2C[C@](C)(N)[C@H](O)[C@H](C)O2)Oc2ccc(cc2Cl)[C@H]1O [Vancomycin] | 4 µg/mL | 4 µg/mL | 0.5 to 64 | 1 | 1 (≈ 0.69 µM) | 1 (≈ 0.69 µM) | 1 (≈ 0.69 µM) | 2 (≈ 1.38 µM) | 1 (≈ 0.69 µM) | 2 (≈ 1.38 µM) | 0.25 (≈ 0.173 µM) | 0.5 (≈ 0.345 µM) | MIC [2, 15]: 0.25 µg/mL (≈ 0.173 µM) |
